Measurements reported in article PMC8434401, “Trifluoromethylated Flavonoid-Based Isoxazoles as Antidiabetic and Anti-Obesity Agents: Synthesis, In Vitro α-Amylase Inhibitory Activity, Molecular Docking and Structure–Activity Relationship Analysis” (Molecules, 2021).
Like-named read-outs stand apart in the source and are kept apart here.

Columns and labels:
[1] = molecular target: Aspergillus oryzae α-amylase (Aspergillus oryzae, UniProt P0C1B3); test: biochemical; settings: for inhibition at 50 µM: read-out: α-Amylase Inhibition PI ± SEM% (percentage inhibition)
Experimental: The α-amylase inhibition assays were carried out according to the protocol described by Chortani et al. (2021), with some modifications. In short, all of the compounds were dissolved in DMSO and then diluted in sodium phosphate buffer (0.02 M, pH 6.9 with 0.006 M NaCl). […] The samples were tested at different concentrations of 50, 25, 12.5, and 6.25 μM. After that, 50 μL of the sample solution was added to 50 μL of Aspergillus oryzae α-amylase solution (0.5 mg/mL) dissolved in the same buffer medium. After pre-incubation for 10 min at 25 °C, 50 μL of starch solution (1% in buffer solution) was added to the mixture. After 10 min of incubation at 25 °C, the product of the reaction was mixed with 100 μL of 3,5-dinitrosalicylic acid solution. At this point, the test tubes were placed for 5 min in a boiling water bath (100 °C), followed by cooling to room temperature. Next, each solution was diluted with 1 mL of distilled water. Over time, the absorbance was measured at 540 nm using a Thermo Scientific™ Multiskan™ GO Microplate Spectrophotometer using a 96-well microplate.
The α-amylase inhibitory activity was determined as follows:PI (%) = 100[(AbsControl−AbsSample)/(AbsControl)] where AbsControl is the absorbance of the solution without sample (buffer instead of the sample solution) and AbsSample is the absorbance of the mixture with the solution of the sample to be tested. […] Each assay was conducted in triplicate.

[2] = Table S1, from the concentration-response curves used to calculate the IC50 values (concentrations in μM), read-out: log(IC50) (converted)
[3] = potency, concentration providing 50% inhibition, mean ± SEM, triplicate, read-out: α-Amylase Inhibition IC50 ± SEM

Structure (SMILES)	inhibition at 50 µM [1] [%]	melting point [°C]	IC50 [1, 2] [µM]	IC50 [1, 3] [µM]
C[C@H]1O[C@H](O[C@H]2[C@H](O)[C@@H](O)[C@@H](O[C@H]3[C@H](O)[C@@H](O)C(O)O[C@@H]3CO)O[C@@H]2CO)[C@H](O)[C@@H](O)[C@@H]1N[C@H]1C=C(CO)[C@@H](O)[C@H](O)[C@H]1O (stereo partly shown) [Acarbose, reference compound]	97.8 ± 0.5			
O=c1c(O)c(-c2ccc(C(F)(F)F)cc2)oc2ccc(Cl)cc12 [Compound 1, 6-Chloro-3-hydroxy-2-(4-(trifluoromethyl)phenyl)-4H-chromen-4-one]	75.2 ± 1.4	275	15.3	15.3 ± 0.4
C#CCOc1c(-c2ccc(C(F)(F)F)cc2)oc2ccc(Cl)cc2c1=O [Compound 2, 6-Chloro-3-(prop-2-yn-1-yloxy)-2-(4-(trifluoromethyl)phenyl)-4H-chromen-4-one]	75.2 ± 0.3	122	17.7	17.7 ± 0.2
O=c1c(OCc2cc(-c3ccccc3)no2)c(-c2ccc(C(F)(F)F)cc2)oc2ccc(Cl)cc12 [Compound 3a, 6-Chloro-3-((3-phenylisoxazol-5-yl)methoxy)-2-(4-(trifluoromethyl)phenyl)-4H-chromen-4-one]	65.6 ± 0.2	134	27.2	27.2 ± 0.7
O=c1c(OCc2cc(-c3ccc(F)cc3)no2)c(-c2ccc(C(F)(F)F)cc2)oc2ccc(Cl)cc12 [Compound 3b, 6-Chloro-3-((3-(4-fluorophenyl)isoxazol-5-yl)methoxy)-2-(4-(trifluoromethyl)phenyl)-4H-chromen-4-one]	94.7 ± 1.2	147	12.6	12.6 ± 0.2
O=c1c(OCc2cc(-c3ccc(Cl)cc3)no2)c(-c2ccc(C(F)(F)F)cc2)oc2ccc(Cl)cc12 [Compound 3c, 6-Chloro-3-((3-(4-chlorophenyl)isoxazol-5-yl)methoxy)-2-(4-(trifluoromethyl)phenyl)-4H-chromen-4-one]	87.1 ± 0.7	177	14.4	14.4 ± 0.2
O=c1c(OCc2cc(-c3ccc(Br)cc3)no2)c(-c2ccc(C(F)(F)F)cc2)oc2ccc(Cl)cc12 [Compound 3d, 3-((3-(4-Bromophenyl)isoxazol-5-yl)methoxy)-6-chloro-2-(4-(trifluoromethyl)phenyl)-4H-chromen-4-one]	85.4 ± 0.9	179	14.6	14.6 ± 0.3
Cc1ccc(-c2cc(COc3c(-c4ccc(C(F)(F)F)cc4)oc4ccc(Cl)cc4c3=O)on2)cc1 [Compound 3e, 6-Chloro-3-((3-(p-tolyl)isoxazol-5-yl)methoxy)-2-(4-(trifluoromethyl)phenyl)-4H-chromen-4-one]	65.4 ± 0.4	171	26	26 ± 0.7
CC(C)(C)c1ccc(-c2cc(COc3c(-c4ccc(C(F)(F)F)cc4)oc4ccc(Cl)cc4c3=O)on2)cc1 [Compound 3f, 3-((3-(4-(Tert-butyl)phenyl)isoxazol-5-yl)methoxy)-6-chloro-2-(4-(trifluoromethyl)phenyl)-4H-chromen-4-one]	64.5 ± 0.7	112	27.6	27.6 ± 1.1
O=c1c(OCc2cc(-c3ccc([N+](=O)[O-])cc3)no2)c(-c2ccc(C(F)(F)F)cc2)oc2ccc(Cl)cc12 [Compound 3g, 6-Chloro-3-((3-(4-nitrophenyl)isoxazol-5-yl)methoxy)-2-(4-(trifluoromethyl)phenyl)-4H-chromen-4-one]	74.7 ± 0.3	175	18.1	18.1 ± 0.3
COc1ccc(-c2cc(COc3c(-c4ccc(C(F)(F)F)cc4)oc4ccc(Cl)cc4c3=O)on2)cc1 [Compound 3h, 6-Chloro-3-((3-(4-methoxyphenyl)isoxazol-5-yl)methoxy)-2-(4-(trifluoromethyl)phenyl)-4H-chromen-4-one]	93.5 ± 1.1	152	13.3	13.3 ± 0.2
CCCCOc1ccc(-c2cc(COc3c(-c4ccc(C(F)(F)F)cc4)oc4ccc(Cl)cc4c3=O)on2)cc1 [Compound 3i, 3-((3-(4-Butoxyphenyl)isoxazol-5-yl)methoxy)-6-chloro-2-(4-(trifluoromethyl)phenyl)-4H-chromen-4-one]	79.4 ± 1	130	15.6	15.6 ± 0.2
CCCCOc1ccc(-c2cc(COc3c(-c4ccc(C(F)(F)F)cc4)oc4ccc(Cl)cc4c3=O)on2)cc1Cl [Compound 3j, 3-((3-(4-Butoxy-3-chlorophenyl)isoxazol-5-yl)methoxy)-6-chloro-2-(4-(trifluoromethyl)phenyl)-4H-chromen-4-one]	93.1 ± 0.9	134	13.7	13.7 ± 0.2
COc1ccc(-c2cc(COc3c(-c4ccc(C(F)(F)F)cc4)oc4ccc(Cl)cc4c3=O)on2)cc1Cl [Compound 3k, 6-Chloro-3-((3-(3-chloro-4-methoxyphenyl)isoxazol-5-yl)methoxy)-2-(4-(trifluoromethyl)phenyl)-4H-chromen-4-one]	72.5 ± 1.1	141	21	21 ± 0.6
COc1ccc(-c2cc(COc3c(-c4ccc(C(F)(F)F)cc4)oc4ccc(Cl)cc4c3=O)on2)cc1Br [Compound 3l, 3-((3-(3-Bromo-4-methoxyphenyl)isoxazol-5-yl)methoxy)-6-chloro-2-(4-(trifluoromethyl)phenyl)-4H-chromen-4-one]	70.4 ± 0.4	144	23	23 ± 0.2
COc1ccc(-c2cc(COc3c(-c4ccc(C(F)(F)F)cc4)oc4ccc(Cl)cc4c3=O)on2)cc1OC [Compound 3m, 6-Chloro-3-((3-(3,4-dimethoxyphenyl)isoxazol-5-yl)methoxy)-2-(4-(trifluoromethyl)phenyl)-4H-chromen-4-one]	93.3 ± 2	152	13.8	13.8 ± 0.1
